Source: PMC8286840, “Identifying SARS-CoV-2 antiviral compounds by screening for small molecule inhibitors of Nsp3 papain-like protease” (Biochemical Journal, 2021)
Structures can show the parent of a compound that is named as a salt. Where two headings read alike, the source gives them in different places. *1 amine or outer side, *2 acyl side, *3 side chain or, on linkers, in order; H or OH if unused. Where a SMILES comes first, the peptide text is derived from it. Bridges are numbered along the chain shown (N, C = ends). Roman numbers before positions name the chains, in order. [ ]: non-standard residue; d: D form. Actinocin(9to1) = Cc1c2oc3c(C)ccc(C(=O)[*:1])c3nc-2c(C(=O)[*:2])c(N)c1=O; NMeV = CN[C@H](C(=O)O)C(C)C; Sar = CNCC(=O)O

Columns and labels:
[1] = molecular target: T1, SARS-CoV-2 PLpro (nsp3 1564–1878) (Severe acute respiratory syndrome coronavirus 2, UniProt P0DTD1); assay: biochemical; set-up: FRET-quenched peptide (Pro3) cleavage by PLpro, 10 min pre-incubation, slope over 20 min, normalised to no-compound control; conditions: high concentration screen, read-out: % of control remaining
[2] = molecular target: T1, SARS-CoV-2 PLpro (nsp3 1564–1878); assay: biochemical; set-up: FRET-quenched peptide (Pro3) cleavage by PLpro, 10 min pre-incubation, slope over 20 min, normalised to no-compound control; conditions: low concentration screen, read-out: % of control remaining

C=CCn1c(=O)c2c(nc(-c3ccc(S(=O)(=O)O)cc3)n2C)n(C)c1=O [1-Allyl-3,7-dimethyl-8-p-sulfophenylxanthine]
remaining activity at 3.75 µM ([1]; Well no.=16): 89.6%
remaining activity at 1.25 µM ([2]; Well no.=16): 98.3%

Cc1c2oc3c(C)ccc(C(=O)N[C@@H]4C(=O)N[C@H](C(C)C)C(=O)N5CCC[C@H]5C(=O)N(C)CC(=O)N(C)[C@@H](C(C)C)C(=O)O[C@@H]4C)c3nc-2c(C(=O)N[C@@H]2C(=O)N[C@H](C(C)C)C(=O)N3CCC[C@H]3C(=O)N(C)CC(=O)N(C)[C@@H](C(C)C)C(=O)O[C@@H]2C)c(N)c1=O [Actinomycin D] (I: T[dV]P[Sar][NMeV] / II: T[dV]P[Sar][NMeV]; ester I:1-I:C, II:1-II:C; linker I:N-II:N via Actinocin(9to1))
remaining activity at 3.75 µM ([1]; Well no.=3075): 103%
remaining activity at 1.25 µM ([2]; Well no.=3075): 103%

CC1CCc2cc(F)cc3c(=O)c(C(=O)O)cn1c23 (stereo not drawn) [Flumequine]
remaining activity at 3.75 µM ([1]; Well no.=5032): 97.6%
remaining activity at 1.25 µM ([2]; Well no.=5032): 96.8%

OCc1ccc(-c2nn(Cc3ccccc3)c3ccccc23)o1 [Lificiguat]
remaining activity at 3.75 µM ([1]; Well no.=7713): 82.8%
remaining activity at 1.25 µM ([2]; Well no.=7713): 99%

C#C[C@]1(OC(C)=O)CC[C@H]2[C@@H]3CCC4=C[C@@H](OC(C)=O)CC[C@@H]4[C@H]3CC[C@@]21C [Ethynodiol diacetate]
remaining activity at 3.75 µM ([1]; Well no.=5373): 92.2%
remaining activity at 1.25 µM ([2]; Well no.=5373): 92.3%

O=c1[nH]nc(Sc2ncc([N+](=O)[O-])s2)n1-c1ccc2c(c1)OCCO2 [BI-78D3]
remaining activity at 3.75 µM ([1]; Well no.=6058): 96.9%
remaining activity at 1.25 µM ([2]; Well no.=6058): 101%

NCCc1c[nH]c2ccccc12 [Tryptamine]
remaining activity at 3.75 µM ([1]; Well no.=7365): 99.2%
remaining activity at 1.25 µM ([2]; Well no.=7365): 97.9%

NCCCC[C@H](N[C@@H](CCc1ccccc1)C(=O)O)C(=O)N1CCC[C@H]1C(=O)O [Lisinopril (dihydrate)]
remaining activity at 3.75 µM ([1]; Well no.=7736): 96.7%
remaining activity at 1.25 µM ([2]; Well no.=7736): 95.6%

CN1CCCCC1Cn1cc(C(=O)c2cc([N+](=O)[O-])ccc2I)c2ccccc21 (stereo not drawn) [AM-1241]
remaining activity at 3.75 µM ([1]; Well no.=5289): 99%
remaining activity at 1.25 µM ([2]; Well no.=5289): 101%

CCOCc1nc2c(N)nc3ccccc3c2n1CC(C)(C)O [Resiquimod]
remaining activity at 3.75 µM ([1]; Well no.=5488): 107%
remaining activity at 3.75 µM ([1]; Well no.=8499): 106%
remaining activity at 1.25 µM ([2]; Well no.=5488): 107%
remaining activity at 1.25 µM ([2]; Well no.=8499): 102%

C[C@]12CC[C@@H]3c4ccc(O)cc4CC[C@H]3[C@@H]1CCC2=O [Estrone]
remaining activity at 3.75 µM ([1]; Well no.=559): 98.9%
remaining activity at 3.75 µM ([1]; Well no.=2038): 104%
remaining activity at 3.75 µM ([1]; Well no.=6445): 96%
remaining activity at 1.25 µM ([2]; Well no.=559): 101%
remaining activity at 1.25 µM ([2]; Well no.=2038): 103%
remaining activity at 1.25 µM ([2]; Well no.=6445): 102%

O=C1[C@@H]2[C@H]3CC[C@H](C3)[C@@H]2C(=O)N1C[C@@H]1CCCC[C@H]1CN1CCN(c2nsc3ccccc23)CC1 [Lurasidone HCl]
remaining activity at 3.75 µM ([1]; Well no.=4891): 98%
remaining activity at 1.25 µM ([2]; Well no.=4891): 99.3%

CC[C@H](C)[C@H](N)C(=O)N1CCC[C@H]1C(=O)N[C@H](C(=O)O)[C@@H](C)CC [Ile-Pro-Ile]
remaining activity at 3.75 µM ([1]; Well no.=5849): 99.6%
remaining activity at 1.25 µM ([2]; Well no.=5849): 100%

COc1ccc(/C=C/C(=O)Nc2ccccc2C(=O)O)cc1OC [Tranilast (trans-)]
remaining activity at 3.75 µM ([1]; Well no.=7917): 92%
remaining activity at 1.25 µM ([2]; Well no.=7917): 92.9%

CC(C)c1cc(-c2ccc(F)c3ccccc23)nc(N)n1 [RS-127445]
remaining activity at 3.75 µM ([1]; Well no.=4683): 102%
remaining activity at 1.25 µM ([2]; Well no.=4683): 106%

O=C(O[C@H]1C[N+]2(CCCOc3ccccc3)CCC1CC2)C(O)(c1cccs1)c1cccs1 [Aclidinium (Bromide)]
remaining activity at 3.75 µM ([1]; Well no.=7336): 101%
remaining activity at 1.25 µM ([2]; Well no.=7336): 98%

COc1ccc(-c2cc(=S)ss2)cc1 [Anethole-trithione]
remaining activity at 3.75 µM ([1]; Well no.=1856): 92.4%
remaining activity at 1.25 µM ([2]; Well no.=1856): 91.9%

O[C@H]1[C@H](O)[C@@H](O)CN2CC[C@H](O)[C@H]12 [Castanospermine]
remaining activity at 3.75 µM ([1]; Well no.=3135): 102%
remaining activity at 1.25 µM ([2]; Well no.=3135): 102%

COCCOC(=O)C1=C(C)NC(C)=C(C(=O)OC/C=C/c2ccccc2)C1c1cccc([N+](=O)[O-])c1 (stereo not drawn) [Cilnidipine]
remaining activity at 3.75 µM ([1]; Well no.=1759): 98.3%
remaining activity at 1.25 µM ([2]; Well no.=1759): 98.8%

Nc1nc2[nH]cc(CCc3ccc(C(=O)N[C@@H](CCC(=O)O)C(=O)O)cc3)c2c(=O)[nH]1 [Pemetrexed (Alimta)]
remaining activity at 3.75 µM ([1]; Well no.=4677): 98.7%
remaining activity at 1.25 µM ([2]; Well no.=4677): 98.1%

O=C(O)/C(S)=C/c1c[nH]c2ccc(F)cc12 [PD 151746]
remaining activity at 3.75 µM ([1]; Well no.=8812): 92.9%
remaining activity at 1.25 µM ([2]; Well no.=8812): 92.8%

COc1ccc(Br)cc1S(=O)(=O)NC(=O)/C=C/c1ccccc1Cc1ccc2ccccc2c1 [L-798106]
remaining activity at 3.75 µM ([1]; Well no.=5661): 95%
remaining activity at 1.25 µM ([2]; Well no.=5661): 91.7%

O=C1NC(=O)C(c2cn(CCCO)c3ncccc23)=C1c1cnccn1 [GSK-3b Inhibitor XI]
remaining activity at 3.75 µM ([1]; Well no.=2470): 102%
remaining activity at 1.25 µM ([2]; Well no.=2470): 101%

C[N+](C)(C)CCCCCCCCCC[N+](C)(C)C [Decamethonium]
remaining activity at 3.75 µM ([1]; Well no.=1554): 100%
remaining activity at 1.25 µM ([2]; Well no.=1554): 97.2%

CCOC(=O)c1cncn1[C@H](C)c1ccccc1 [Etomidate]
remaining activity at 3.75 µM ([1]; Well no.=5187): 101%
remaining activity at 1.25 µM ([2]; Well no.=5187): 100%

CCCC(C(=O)OCCN(CC)CC)(c1ccccc1)c1ccccc1 [SKF-525A hydrochloride]
remaining activity at 3.75 µM ([1]; Well no.=902): 101%
remaining activity at 1.25 µM ([2]; Well no.=902): 105%

COc1ccc(C2(O)OC(=O)C(c3ccc4c(c3)OCO4)=C2Cc2cc(OC)c(OC)c(OC)c2)cc1 (stereo not drawn) [PD-156707]
remaining activity at 3.75 µM ([1]; Well no.=5693): 104%
remaining activity at 1.25 µM ([2]; Well no.=5693): 101%

CC(C)(O/N=C(\C(=O)N[C@@H]1C(=O)N2C(C(=O)[O-])=C(C[n+]3ccccc3)CS[C@H]12)c1csc(N)n1)C(=O)O [Ceftazidime]
remaining activity at 3.75 µM ([1]; Well no.=2221): 98%
remaining activity at 1.25 µM ([2]; Well no.=2221): 98.3%

CCOC(=O)N1c2ccc(C(F)(F)F)cc2[C@@H](N(Cc2cc(C(F)(F)F)cc(C(F)(F)F)c2)C(=O)OC)C[C@H]1CC [Torcetrapib (CP-529414)]
remaining activity at 3.75 µM ([1]; Well no.=4749): 98.1%
remaining activity at 1.25 µM ([2]; Well no.=4749): 95.8%

COc1ccc(-c2cc(=O)c3c(O)cc(O)cc3o2)cc1 [Acacetine]
remaining activity at 3.75 µM ([1]; Well no.=3398): 92.9%
remaining activity at 1.25 µM ([2]; Well no.=3398): 94.2%

NC(=O)c1cccc(-c2cccc(OC(=O)NC3CCCCC3)c2)c1 [URB597]
remaining activity at 3.75 µM ([1]; Well no.=5889): 109%
remaining activity at 3.75 µM ([1]; Well no.=8102): 94.7%
remaining activity at 1.25 µM ([2]; Well no.=5889): 109%
remaining activity at 1.25 µM ([2]; Well no.=8102): 95.4%

O=C(CCCN1CCC(O)(c2cccc(C(F)(F)F)c2)CC1)c1ccc(F)cc1 [Trifluperidol hydrochloride]
remaining activity at 3.75 µM ([1]; Well no.=1376): 94.4%
remaining activity at 1.25 µM ([2]; Well no.=1376): 96.4%
